Experimental data published in patent US20160038532A1, “Treatment of Multiple Sclerosis With Combination of Laquinimod and Glatiramer Acetate” (TEVA PHARMACEUTICAL INDUSTRIES, LTD., priority 2011, published 2016).
Marks after values point to notes of the source that are not given here.

Legend:
[1] = system: relapsing remitting (RR) EAE; experiment: Relapsing remitting EAE in Biozzi mice, combination study (Example 2.6); assay type: in vivo
Experimental: EAE is an animal model for multiple sclerosis. In the Biozzi AB/H EAE mice, a RR EAE can be induced. […] Re-injection of an encephalitogen can induce a chronic relapsing disease that enables measuring long-term effects on subsequent relapses rather than immediate effects.
The EAE induction was performed according to procedure “RR-EAE.Biozzi” The Biozzi mice were weighed and injected subcutaneously and re-injected one week later with encephalitogenic agent (MSCH emulsion). 0.3 mL of the encephalitogenic agent containing 1.0 mg of MSCH and 200.0 μg of MT was injected subcutaneously, at two sites in the right flank of each mouse (0.15 mL at each site). The second injection was done in a similar manner in the left flank, one week later.
On the day of first injection of encephalotigen, the Biozzi mice were randomly allocated to eight treatment groups as follows: Tables 16-17.
The 5.0 mg/mL laquinimod stock solution was diluted 1:5 to yield 1 mg/mL.
The mice in all the groups were administered daily by oral gavage a volume dose level of […] of the respective test formulations from the day the mice are allocated to the treatment groups (first injection of encephalitogen) for 59 consecutive days until the termination of the study.
The mice were examined and scored according to the following table, until the termination of the study (60 days after initiation of treatment).
The activity of the test articles for the first and second phase of RR EAE was calculated by comparing the incidence of disease, mortality, onset and duration of disease, group mean score and mean maximal score to the control group. Calculations were carried separately and together for the first and the second relapse.

MSCH-induced EAE = MSCH-induced EAE in CSJL mice (Example 2.7); assay type: in vivo, CSJL/F1 mice; conditions: GA blocking 0.5 mg/kg (sub-optimal dose), with encephalitogen
MOG-induced EAE = experiment: MOG-induced EAE, repeat study (Example 2.3); assay type: in vivo, C57B1/6 mice; conditions: GA-blocking 12.5 mg/kg with inoculum day 0
Experimental: 120 female C57B1/6 mice 8-10 weeks old were used the study. Mice were allocated randomly into 8 groups according to Table 7 below.
24 mg MOG was diluted in 8 ml PBS (3 mg/ml, stock solution). Groups 1, 3, 5 and 7: 4 ml of stock solution was diluted 1:1 with PBS. […] This solution was mixed 1:1 with the stock solution of MOG.
The high dose LAQ (25 mg/10 ml/kg) solution (150 mg in 60 ml DDW) was prepared once weekly and stored in the amber glass at room temperature. The lower LAQ doses were prepared daily. For the dose of 5 mg/kg, 1.6 ml of stock solution were added to 6.4 ml DDW. For the dose 1 mg/kg, […] of the previous solution (intermediate dose) were added to 5.2 ml DDW. The compound was administered by gavage once daily during the hole experiment (30 days) at a volume of 0.2 ml/mouse.
The mice were observed daily from the 10th day post-EAE induction (first injection of MOG) and the EAE clinical signs were scored according to the grades described in the 2 above.

[2] = first and second attacks together, GA 12.5 mg/kg oral daily 59 d
[3] = first attack, GA 12.5 mg/kg oral daily
[4] = second attack, GA 12.5 mg/kg oral daily

L-glutamic acid polymer with L-alanine, L-lysine and L-tyrosine, acetate (salt) [GA]
GMS % inhibition [1, 2]: 21.7%
GMS value [1, 2]: 1.8
Incidence [1, 2]: 12/14
Incidence % inhibition [1, 2]: 7.7%
MMS % inhibition [1, 2]: 0.0%
MMS value [1, 2]: 3.6
Mean Duration [1, 2]: 23.8 ± 16.2 days
% Inhibition 1 (incidence) [1, 3]: 7.7%
IMS % Inhibition 3 [1, 3]: 15.6%
IMS value [1, 3]: 58.6 ± 70.5
Incidence [1, 3]: 12/14
MMS % Inhibition 2 [1, 3]: 2.8%
MMS value [1, 3]: 3.5 ± 1.6
Mean Duration [1, 3]: 15.7 ± 14.0 days
% Inhibition 1 (incidence) [1, 4]: 31.2%
IMS % Inhibition 3 [1, 4]: 35.5%
IMS value [1, 4]: 30.5 ± 33.0
Incidence [1, 4]: 6/12
MMS % Inhibition 2 [1, 4]: 31.0%
MMS value [1, 4]: 2.0 ± 1.7
Mean Duration [1, 4]: 9.4 ± 10.5 days
% Inhibition 1 (incidence) (MSCH-induced EAE): 30.0%
GMS % Inhibition 3 (MSCH-induced EAE): 61.9%
GMS value (MSCH-induced EAE): 1.6 ± 1.5
Incidence (MSCH-induced EAE): 7/10
MMS % Inhibition 2 (MSCH-induced EAE): 42.0%
MMS value (MSCH-induced EAE): 2.9 ± 2.1
Mean Duration (MSCH-induced EAE): 5.8 ± 4.5 days
Mean Onset (MSCH-induced EAE): 17.0 ± 4.9 days
% inhibition compared to Control (GMS) (MOG-induced EAE): 78.9%
Group Mean Score (MOG-induced EAE): 0.52***
Incidence (MOG-induced EAE): 5/15
Mean Disease Duration (MOG-induced EAE): 3.7*** days
Mean Maximal Score (MOG-induced EAE): 0.97***
Mean Onset (MOG-induced EAE): 25.6*** days
